Molecules are shown by their SMILES. Active and inactive are the calls of the source. The calls are words filed in the database; no cut-off is given here. Some results are limits rather than exact numbers.

Target in the first test: not listed separately
Briefly: (§1) Displacement of [3H]PDBu from PKC in calf brain homogenate. Format: tissue-based, Bos taurus. In general terms: Loss of bound radioactivity is the signal in a displacement assay; it reports binding, not function.
One may read the IC50 as the midpoint of a concentration-inhibition curve. Read a low IC50 as inhibition by little substance. `C=C1C[C@@]23CC[C@@H]4C(C)(C)C(=O)CC[C@@]4(C)[C@@H]2C[C@@H]1[C@H](O)C3=O` had an IC50 above 630 µM.
Same read-out and setting: next, `CCCCCCCCCCCCCCCC(=O)OCC1=C[C@@H]2C(=O)[C@]3(C=C(C)[C@H](O)[C@@]3(O)[C@@H]1O)[C@H](C)C[C@@H]1[C@H]2C1(C)C`: 5.3 µM.
In the case of `CCCCCCCCCCCCCCCC(=O)OCC1=C[C@@H]2C(=O)[C@]3(C=C(C)[C@H](O)[C@@]3(O)[C@@H]1O)[C@H](C)C[C@@H]1[C@H]2[C@]1(C)CO`, the IC50 was determined as 0.023 µM.
With `CC1(C)[C@H](O)CC[C@]2(C)[C@@H]1CC[C@@]13CC[C@@H](C[C@H]12)[C@](O)(CO)C3`, the concentration for half-maximal inhibition (IC50) was 73 µM. Compared with the last compound, the IC50 is about 3200-fold higher.
In the case of `CCCCCCCCCCCCCCCC(=O)OCC1=C[C@@H]2C(=O)[C@]3(C=C(C)[C@H](OC(C)=O)[C@@]3(O)[C@@H]1OC(C)=O)[C@H](C)C[C@@H]1[C@H]2[C@]1(C)COC(C)=O`, the IC50 is above 275 µM.
In turn, `CC1(C)C(=O)CC[C@]2(C)[C@@H]1CC[C@@]13CC[C@@H](C[C@H]12)[C@](O)(CO)C3` registered an IC50 of 66 µM.

For another test, the species on record is Bos taurus. The test is described as §1. Format: tissue-based.
Turning to `COc1cc(OC)c(C(=O)CO)c(O)c1C`, the result was inactive.

These data come from ChEMBL document CHEMBL1158285, “Constituents from the stem wood of Euphorbia quinquecostata with phorbol dibutyrate receptor-binding inhibitory activity” (J Nat Prod, 1996).
